{
  "source": "paper PMC5218480",
  "about": "(PLoS ONE, 2017)",
  "test_system": "MV-4-11 cells",
  "test": "Gene expression microarray analysis (Affymetrix PrimeView) and GSEA",
  "type": "cell-based, human",
  "parameters": "RFU PODN (11730768_x_at) / Fold change /veh PODN (11730768_x_at) / RFU LINC00158 (11744669_a_at) / Fold change /veh LINC00158 (11744669_a_at) / RFU DUSP10 (11751237_a_at) / Fold change /veh DUSP10 (11751237_a_at) / RFU ID3 (11757404_x_at) / Fold change /veh ID3 (11757404_x_at) / RFU PLEKHG5 (11737974_s_at) / Fold change /veh PLEKHG5 (11737974_s_at) / RFU LRRC4B (11730491_at) / Fold change /veh LRRC4B (11730491_at) / RFU GIMAP4 (11747438_a_at) / Fold change /veh GIMAP4 (11747438_a_at) / RFU KRT8 (11758183_x_at) / Fold change /veh KRT8 (11758183_x_at) / RFU CNN1 (11734310_a_at) / Fold change /veh CNN1 (11734310_a_at) / RFU VPS37D (11726825_at) / Fold change /veh VPS37D (11726825_at) / RFU C10orf10 (11716522_x_at) / Fold change /veh C10orf10 (11716522_x_at) / RFU KIR2DL2 /// KIR2DL4 /// KIR2DL5A /// KIR2DL5B /// KIR2DS1 /// KIR2DS2 /// KIR2DS3 /// KIR2DS4 /// KIR3DL3 /// KIR3DL3 /// KIR3DS1 (11738374_at) / Fold change /veh KIR2DL2 /// KIR2DL4 /// KIR2DL5A /// KIR2DL5B /// KIR2DS1 /// KIR2DS2 /// KIR2DS3 /// KIR2DS4 /// KIR3DL3 /// KIR3DL3 /// KIR3DS1 (11738374_at) / RFU C1QL1 (11718748_at) / Fold change /veh C1QL1 (11718748_at) / RFU TMPRSS4 (11747572_a_at) / Fold change /veh TMPRSS4 (11747572_a_at) / RFU HAMP (11756126_x_at) / Fold change /veh HAMP (11756126_x_at) / RFU RNFT2 (11725882_a_at) / Fold change /veh RNFT2 (11725882_a_at) / RFU NR4A2 (11747474_a_at) / Fold change /veh NR4A2 (11747474_a_at) / RFU ABCC12 (11746883_a_at) / Fold change /veh ABCC12 (11746883_a_at) / RFU TMEM136 (11760407_x_at) / Fold change /veh TMEM136 (11760407_x_at) / RFU CLDN22 /// WWC2 (11732394_at) / Fold change /veh CLDN22 /// WWC2 (11732394_at) / RFU HLA-DPB1 (11760878_x_at) / Fold change /veh HLA-DPB1 (11760878_x_at) / RFU SPINT1 (11716480_a_at) / Fold change /veh SPINT1 (11716480_a_at) / RFU GAP43 (11754022_s_at) / Fold change /veh GAP43 (11754022_s_at) / RFU A4GNT (11735810_at) / Fold change /veh A4GNT (11735810_at) / RFU PRB3 (11715151_x_at) / Fold change /veh PRB3 (11715151_x_at) / RFU TUBB4B (11761932_at) / Fold change /veh TUBB4B (11761932_at) / RFU CAPN14 (11732068_a_at) / Fold change /veh CAPN14 (11732068_a_at) / RFU TMCC2 (11721928_a_at) / Fold change /veh TMCC2 (11721928_a_at) / RFU IRGQ (11745062_a_at) / Fold change /veh IRGQ (11745062_a_at) / RFU FAM174B (11720279_a_at) / Fold change /veh FAM174B (11720279_a_at) / RFU TMPRSS4 (11748680_a_at) / Fold change /veh TMPRSS4 (11748680_a_at) / RFU FAM212B (11763350_a_at) / Fold change /veh FAM212B (11763350_a_at) / RFU PLEKHG5 (11743358_a_at) / Fold change /veh PLEKHG5 (11743358_a_at) / RFU ZSCAN30 (11745921_a_at) / Fold change /veh ZSCAN30 (11745921_a_at) / RFU CMKLR1 (11741424_a_at) / Fold change /veh CMKLR1 (11741424_a_at) / RFU LOC101060620 /// MAPK8IP1 (11723275_at) / Fold change /veh LOC101060620 /// MAPK8IP1 (11723275_at) / RFU SPTSSB (11747773_x_at) / Fold change /veh SPTSSB (11747773_x_at) / RFU PRSS12 (11739890_at) / Fold change /veh PRSS12 (11739890_at) / RFU BIN1 (11741810_x_at) / Fold change /veh BIN1 (11741810_x_at) / RFU WNT11 (11732464_a_at) / Fold change /veh WNT11 (11732464_a_at) / RFU C10orf10 (11716521_a_at) / Fold change /veh C10orf10 (11716521_a_at) / RFU C5orf56 (11738089_at) / Fold change /veh C5orf56 (11738089_at) / RFU CYB561 (11721691_x_at) / Fold change /veh CYB561 (11721691_x_at) / RFU ANKRD19P (11752326_a_at) / Fold change /veh ANKRD19P (11752326_a_at) / RFU OR2T12 /// OR2T33 /// OR2T8 (11738714_s_at) / Fold change /veh OR2T12 /// OR2T33 /// OR2T8 (11738714_s_at) / RFU VCAN (11748164_a_at) / Fold change /veh VCAN (11748164_a_at) / RFU JSRP1 (11732532_at) / Fold change /veh JSRP1 (11732532_at) / RFU KRTAP10-11 (11738290_x_at) / Fold change /veh KRTAP10-11 (11738290_x_at) / RFU MYO3A (11730013_a_at) / Fold change /veh MYO3A (11730013_a_at) / RFU EBF3 (11725865_a_at) / Fold change /veh EBF3 (11725865_a_at) / RFU CAMK2N1 (11719241_x_at) / Fold change /veh CAMK2N1 (11719241_x_at) / RFU C5orf56 (11738088_a_at) / Fold change /veh C5orf56 (11738088_a_at) / RFU OLFML3 (11715873_a_at) / Fold change /veh OLFML3 (11715873_a_at) / RFU LOC100653217 /// NTM (11731650_a_at) / Fold change /veh LOC100653217 /// NTM (11731650_a_at) / RFU MAPK11 (11762145_a_at) / Fold change /veh MAPK11 (11762145_a_at) / RFU FIZ1 (11724087_x_at) / Fold change /veh FIZ1 (11724087_x_at) / RFU OASL (11726364_x_at) / Fold change /veh OASL (11726364_x_at) / RFU SOX15 (11748057_x_at) / Fold change /veh SOX15 (11748057_x_at) / RFU CD79A (11719716_a_at) / Fold change /veh CD79A (11719716_a_at) / RFU HIST1H1D (11736915_at) / Fold change /veh HIST1H1D (11736915_at) / RFU CASKIN2 (11723855_a_at) / Fold change /veh CASKIN2 (11723855_a_at) / RFU LOC730098 (11760151_x_at) / Fold change /veh LOC730098 (11760151_x_at) / RFU OR4N2 (11742367_at) / Fold change /veh OR4N2 (11742367_at) / RFU PRRT2 (11749266_a_at) / Fold change /veh PRRT2 (11749266_a_at) / RFU SNX32 (11753110_a_at) / Fold change /veh SNX32 (11753110_a_at) / RFU CDHR5 (11726645_a_at) / Fold change /veh CDHR5 (11726645_a_at) / RFU RCAN1 (11760418_a_at) / Fold change /veh RCAN1 (11760418_a_at) / RFU FAM167A (11723789_a_at) / Fold change /veh FAM167A (11723789_a_at) / RFU FAM26E (11764081_at) / Fold change /veh FAM26E (11764081_at) / RFU ISYNA1 (11749810_s_at) / Fold change /veh ISYNA1 (11749810_s_at) / RFU ACY1 (11761880_at) / Fold change /veh ACY1 (11761880_at) / RFU 11764098_at / Fold change /veh 11764098_at / RFU SAMD14 (11745864_x_at) / Fold change /veh SAMD14 (11745864_x_at) / RFU NPB (11741838_a_at) / Fold change /veh NPB (11741838_a_at) / RFU TMPRSS6 (11731388_a_at) / Fold change /veh TMPRSS6 (11731388_a_at) / RFU KRTAP10-2 (11738614_at) / Fold change /veh KRTAP10-2 (11738614_at) / RFU ARHGAP8 /// PRR5-ARHGAP8 (11727945_x_at) / Fold change /veh ARHGAP8 /// PRR5-ARHGAP8 (11727945_x_at) / RFU KRTAP5-7 /// NADSYN1 (11734609_at) / Fold change /veh KRTAP5-7 /// NADSYN1 (11734609_at) / RFU RASL12 (11751679_a_at) / Fold change /veh RASL12 (11751679_a_at) / RFU CDKN2B (11736163_a_at) / Fold change /veh CDKN2B (11736163_a_at) / RFU PRF1 (11729649_at) / Fold change /veh PRF1 (11729649_at) / RFU, ZNF638 /// ZNF638-IT1 / Fold change vs veh, ZNF638 /// ZNF638-IT1 / RFU, PANK3 / Fold change vs veh, PANK3 / RFU, SH3YL1 / Fold change vs veh, SH3YL1 / RFU, ZEB2 / Fold change vs veh, ZEB2 / RFU, NRIP1 / Fold change vs veh, NRIP1 / RFU, PTTG1IP / Fold change vs veh, PTTG1IP / RFU, CAPN2 / Fold change vs veh, CAPN2 / RFU, MED14 / Fold change vs veh, MED14 / RFU, SNORA58 / Fold change vs veh, SNORA58 / RFU, C1orf63 / Fold change vs veh, C1orf63 / RFU, LRRFIP1 / Fold change vs veh, LRRFIP1 / RFU, NDUFAF7 / Fold change vs veh, NDUFAF7 / RFU, SLC12A2 / Fold change vs veh, SLC12A2 / RFU, IBTK / Fold change vs veh, IBTK / RFU, ESF1 / Fold change vs veh, ESF1 / Fold change vs veh, TMEM50B / RFU, TAOK1 / Fold change vs veh, TAOK1 / RFU, ACBD3 / Fold change vs veh, ACBD3 / RFU, TMA16 / Fold change vs veh, TMA16 / RFU, RWDD3 / Fold change vs veh, RWDD3 / RFU, BCAT1 / Fold change vs veh, BCAT1 / RFU, EDEM3 / Fold change vs veh, EDEM3 / RFU, TMEM33 / Fold change vs veh, TMEM33 / RFU, WDR75 / Fold change vs veh, WDR75 / RFU, AHCTF1 / Fold change vs veh, AHCTF1 / RFU, TFRC / Fold change vs veh, TFRC / RFU, ZDHHC17 / Fold change vs veh, ZDHHC17 / RFU, NOM1 / Fold change vs veh, NOM1 / RFU, ARL8B / Fold change vs veh, ARL8B / RFU, ZBTB11 / Fold change vs veh, ZBTB11 / RFU, TAMM41 / Fold change vs veh, TAMM41 / RFU, KIAA1704 /// LOC100996395 / Fold change vs veh, KIAA1704 /// LOC100996395 / RFU, ING1 / Fold change vs veh, ING1 / RFU, TRMT61B / Fold change vs veh, TRMT61B / RFU, FUBP3 / Fold change vs veh, FUBP3 / RFU, TP53 / Fold change vs veh, TP53 / RFU, TNKS2 / Fold change vs veh, TNKS2 / RFU, ZFP14 / Fold change vs veh, ZFP14 / RFU, ACTR2 / Fold change vs veh, ACTR2 / RFU, PPP3R1 / Fold change vs veh, PPP3R1 / RFU, PIK3R1 / Fold change vs veh, PIK3R1 / RFU, HNRNPA1 / Fold change vs veh, HNRNPA1 / RFU, RNF170 / Fold change vs veh, RNF170 / RFU, ZNF28 / Fold change vs veh, ZNF28 / RFU, RNGTT / Fold change vs veh, RNGTT / RFU, OGT / Fold change vs veh, OGT / RFU, BRD1 / Fold change vs veh, BRD1 / RFU, MARS / Fold change vs veh, MARS / RFU, ZNF655 / Fold change vs veh, ZNF655 / RFU, FAHD1 / Fold change vs veh, FAHD1 / RFU, BDP1 / Fold change vs veh, BDP1 / RFU, LRRCC1 / Fold change vs veh, LRRCC1 / RFU, ARID1A / Fold change vs veh, ARID1A / RFU, ZNF146 / Fold change vs veh, ZNF146 / RFU, ZNF330 / Fold change vs veh, ZNF330 / RFU, GPN3 / Fold change vs veh, GPN3 / RFU, C9orf123 / Fold change vs veh, C9orf123 / RFU, N4BP2L2 / Fold change vs veh, N4BP2L2 / RFU, ARFIP1 / Fold change vs veh, ARFIP1 / RFU, FAM179B / Fold change vs veh, FAM179B / RFU, BCL10 / Fold change vs veh, BCL10 / RFU, UHRF1BP1L / Fold change vs veh, UHRF1BP1L / RFU, BET1 / Fold change vs veh, BET1 / RFU, CNOT2 / Fold change vs veh, CNOT2 / RFU, ZNF268 / Fold change vs veh, ZNF268 / Fold change vs veh, ZNF507 / RFU, DGCR2 / Fold change vs veh, DGCR2 / RFU, WDSUB1 / Fold change vs veh, WDSUB1 / Fold change vs veh, HSP90B1 /// MIR3652 / RFU, ADSS / Fold change vs veh, ADSS / RFU, GK / Fold change vs veh, GK / RFU, ZNF148 / Fold change vs veh, ZNF148 / RFU, TAF9 / Fold change vs veh, TAF9 / RFU, SLC1A5 / Fold change vs veh, SLC1A5 / RFU, SLMO2 / Fold change vs veh, SLMO2 / RFU, ABCC4 / Fold change vs veh, ABCC4 / RFU, LOC101060439 /// RAP1B / Fold change vs veh, LOC101060439 /// RAP1B / RFU, RFX7 / Fold change vs veh, RFX7 / RFU, GTPBP10 / Fold change vs veh, GTPBP10 / RFU, CNEP1R1 / Fold change vs veh, CNEP1R1 / RFU, BIVM-ERCC5 /// ERCC5 / Fold change vs veh, BIVM-ERCC5 /// ERCC5 / RFU, ILF3 / Fold change vs veh, ILF3 / RFU 11762660_at / Fold change /veh 11762660_at / RFU VCAN (11757783_s_at) / Fold change /veh VCAN (11757783_s_at) / RFU DDX43 (11728927_at) / Fold change /veh DDX43 (11728927_at) / RFU KRT8 (11758188_x_at) / Fold change /veh KRT8 (11758188_x_at) / RFU NKD1 (11759106_at) / Fold change /veh NKD1 (11759106_at) / RFU SRD5A1 (11742802_a_at) / Fold change /veh SRD5A1 (11742802_a_at) / RFU TPSAB1 /// TPSB2 (11721975_s_at) / Fold change /veh TPSAB1 /// TPSB2 (11721975_s_at) / RFU GSTM3 (11746129_a_at) / Fold change /veh GSTM3 (11746129_a_at) / RFU IL23R (11737362_x_at) / Fold change /veh IL23R (11737362_x_at) / RFU TMEM51 (11727254_a_at) / Fold change /veh TMEM51 (11727254_a_at) / RFU PIWIL2 (11732686_x_at) / Fold change /veh PIWIL2 (11732686_x_at) / RFU ORM1 (11744905_x_at) / Fold change /veh ORM1 (11744905_x_at) / RFU CCDC152 (11743942_at) / Fold change /veh CCDC152 (11743942_at) / RFU ECM1 (11717891_a_at) / Fold change /veh ECM1 (11717891_a_at) / RFU IL23R (11748794_a_at) / Fold change /veh IL23R (11748794_a_at) / RFU TNFAIP8L3 (11732012_x_at) / Fold change /veh TNFAIP8L3 (11732012_x_at) / RFU MBOAT4 (11741988_at) / Fold change /veh MBOAT4 (11741988_at) / RFU 11764193_at / Fold change /veh 11764193_at / RFU TMEM53 (11763286_at) / Fold change /veh TMEM53 (11763286_at) / RFU MAGEB2 (11727129_at) / Fold change /veh MAGEB2 (11727129_at) / RFU TMEM200A (11744735_a_at) / Fold change /veh TMEM200A (11744735_a_at) / RFU CCDC152 (11751479_a_at) / Fold change /veh CCDC152 (11751479_a_at) / RFU FAM211A (11726209_a_at) / Fold change /veh FAM211A (11726209_a_at) / RFU RGS16 (11746705_a_at) / Fold change /veh RGS16 (11746705_a_at) / RFU VCAN (11755009_s_at) / Fold change /veh VCAN (11755009_s_at) / RFU RHOB (11743442_s_at) / Fold change /veh RHOB (11743442_s_at) / RFU RGS16 (11720943_a_at) / Fold change /veh RGS16 (11720943_a_at) / RFU RGS16 (11720944_at) / Fold change /veh RGS16 (11720944_at) / RFU, VPS4B / Fold change vs veh, VPS4B / RFU, CREB1 / Fold change vs veh, CREB1 / RFU, DNAJC13 / Fold change vs veh, DNAJC13 / RFU, GNAQ / Fold change vs veh, GNAQ / RFU, CDK5R1 / Fold change vs veh, CDK5R1 / RFU, ZRANB3 / Fold change vs veh, ZRANB3 / RFU, CUL4A / Fold change vs veh, CUL4A / RFU, CCNY / Fold change vs veh, CCNY / RFU, UFL1 / Fold change vs veh, UFL1 / RFU, COG3 / Fold change vs veh, COG3 / RFU, DIAPH2 / Fold change vs veh, DIAPH2 / RFU, SKA2 / Fold change vs veh, SKA2 / RFU, AFF3 / Fold change vs veh, AFF3 / RFU, LMF1 / Fold change vs veh, LMF1 / RFU, IPO11 / Fold change vs veh, IPO11 / RFU, DFFB / Fold change vs veh, DFFB / RFU, FOXP1 / Fold change vs veh, FOXP1 / RFU, CARD8 / Fold change vs veh, CARD8 / RFU, STRN3 / Fold change vs veh, STRN3 / RFU, ADK / Fold change vs veh, ADK / RFU, RASSF2 / Fold change vs veh, RASSF2 / RFU, WIPF1 / Fold change vs veh, WIPF1 / RFU, LARP1B / Fold change vs veh, LARP1B / RFU, RASA1 / Fold change vs veh, RASA1 / RFU, RB1 / Fold change vs veh, RB1 / RFU, PPFIA1 / Fold change vs veh, PPFIA1 / RFU, MAT2A / Fold change vs veh, MAT2A / RFU, CCT5 / Fold change vs veh, CCT5 / RFU, WDR92 / Fold change vs veh, WDR92 / RFU, CUX1 / Fold change vs veh, CUX1 / RFU, TTC7A / Fold change vs veh, TTC7A / RFU, TMEM135 / Fold change vs veh, TMEM135 / RFU, DEPTOR / Fold change vs veh, DEPTOR / RFU, CPM / Fold change vs veh, CPM / RFU, DNAJB6 / Fold change vs veh, DNAJB6 / RFU, CACNA2D3 / Fold change vs veh, CACNA2D3 / RFU, DTX4 / Fold change vs veh, DTX4 / RFU, TFCP2 / Fold change vs veh, TFCP2 / RFU, GMCL1 /// GMCL1P1 / Fold change vs veh, GMCL1 /// GMCL1P1 / RFU, AEBP2 / Fold change vs veh, AEBP2 / RFU, SNHG1 /// SNORD22 /// SNORD25 /// SNORD26 /// SNORD27 /// SNORD28 /// SNORD29 /// SNORD31 / Fold change vs veh, SNHG1 /// SNORD22 /// SNORD25 /// SNORD26 /// SNORD27 /// SNORD28 /// SNORD29 /// SNORD31 / Fold change (Aza/veh), C12orf56 (ProbeSet 11735607_a_at) / Fold change (ACY-1035/veh), C12orf56 (ProbeSet 11735607_a_at) / Fold change (Aza/veh), FGFR1OP (ProbeSet 11751329_s_at) / Fold change (ACY-1035/veh), FGFR1OP (ProbeSet 11751329_s_at) / Fold change (Aza/veh), VPS36 (ProbeSet 11739960_a_at) / Fold change (ACY-1035/veh), VPS36 (ProbeSet 11739960_a_at) / RFU SYPL1 (11715823_x_at) / Fold change /veh SYPL1 (11715823_x_at) / RFU IGFBP7 (11715501_s_at) / Fold change /veh IGFBP7 (11715501_s_at) / RFU REEP3 (11722064_at) / Fold change /veh REEP3 (11722064_at) / RFU IGLL1 (11728026_x_at) / Fold change /veh IGLL1 (11728026_x_at): dose or concentration left out as unconfirmed",
  "settings": "ProbeSet 11725787_a_at; LIST B",
  "data": [
    {"compound": "Nc1ncn([C@@H]2O[C@H](CO)[C@@H](O)[C@H]2O)c(=O)n1", "note": "[azacitidine]", "values": [
      {"measurement": "Fold change vs veh, TMA16", "value": 0.94}
    ]}
  ]
}
